Measured values reported in patent US5516795A, “Heteroatom substituted propanyl derivatives having 5-lipoxygenase inhibitory activity” (Abbott Laboratories, priority 1994, dated 1996).
Blank lines part the entries; values can stand above or below the compound they belong to.

Molecular target: T1, 5-Lipoxygenase (Homo sapiens, UniProt P09917)
T1 construct: Human heparinized whole blood was preincubated with test compounds; endogenous in cells; host or cells: human heparinized whole blood (endogenous enzyme of the blood cells)
T1 sequence (P09917 1-674): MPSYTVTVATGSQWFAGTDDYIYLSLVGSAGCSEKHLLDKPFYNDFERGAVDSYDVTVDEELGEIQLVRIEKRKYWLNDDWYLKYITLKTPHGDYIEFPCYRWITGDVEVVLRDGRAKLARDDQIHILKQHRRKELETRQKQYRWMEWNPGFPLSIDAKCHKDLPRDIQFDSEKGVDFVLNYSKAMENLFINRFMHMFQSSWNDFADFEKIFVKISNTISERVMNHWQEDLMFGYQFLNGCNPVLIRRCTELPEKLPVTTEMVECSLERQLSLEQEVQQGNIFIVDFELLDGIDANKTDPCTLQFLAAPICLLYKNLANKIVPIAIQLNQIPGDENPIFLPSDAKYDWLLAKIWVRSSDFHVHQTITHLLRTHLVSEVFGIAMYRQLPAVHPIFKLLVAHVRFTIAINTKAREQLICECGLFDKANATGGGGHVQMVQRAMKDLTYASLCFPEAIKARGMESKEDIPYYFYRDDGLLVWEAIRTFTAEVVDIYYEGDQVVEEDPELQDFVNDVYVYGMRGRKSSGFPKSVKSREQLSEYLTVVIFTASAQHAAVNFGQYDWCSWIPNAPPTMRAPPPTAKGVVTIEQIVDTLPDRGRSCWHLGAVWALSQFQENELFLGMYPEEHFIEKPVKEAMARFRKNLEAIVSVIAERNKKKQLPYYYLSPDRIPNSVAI
Experiment: Inhibition of calcium ionophore A23187-induced LTB4 biosynthesis in human whole blood (5-lipoxygenase inhibition)
Assay type: cell-based
Conditions: A23187 8.3 μM; for inhibition at 0.1 µM: @ 0.10 μM
Procedure: Lipoxygenase Inhibition Determination
Inhibition of leukotriene biosynthesis was evaluated in an assay, involving calcium ionophore-induced LTB4 biosynthesis expressed human whole blood. Human heparinized whole blood was preincubated with test compounds or vehicle for 15 min at 37° C. followed by calcium ionophore A23187 challenge (final concentration of 8.3 μM) and the reaction terminated after 30 min by adding two volumes of methanol containing prostaglandin B2 as an internal recovery standard. The methanol extract was analyzed for LTB4 using a commercially available radioimmunoassay.
In Vitro Inhibitory Potencies of Compounds
of this Invention Against 5-Lipoxygenase from
Stimulated LTB4 Formation in Human Whole Blood

[1] = human whole blood, read-out: In vitro inhibition of 5-lipoxygenase / stimulated LTB4 formation (% printed under head "IC50 (10^-6 M)")

Compound: C=CCN(C)c1ccc(Sc2cccc(/C(=N\OC)[C@H]3COC(C)(C)O3)c2)cc1 [Example 3 (E oxime), E-(4S)-O-methyl-2,2-dimethyl-4-[(3-(4-(N-allyl-N-methylamino)phenylthioxyl)phenyl)oximinomethyl]-1,3dioxolane]
- IC50 (stimulated LTB4 formation in human whole blood, read-out: IC50 (10^-6 M)): 50 nM

Compound: CO/N=C(\c1cc(F)cc(OCc2ccc(N(C)C(=O)N(C)C)cc2)c1)[C@H]1COC(C)(C)O1 [Example 1, E-(4S)-O-methyl-2,2-dimethyl-4-[(5-fluoro-3-(4-(N',N'-dimethylaminocarbonyl-N-methylamino)benzyloxy)phenyl)oximinomethyl]-1,3-dioxolane]
- inhibition at 0.1 µM [1]: 100%

Compound: CO/N=C(\c1cc(F)cc(OCc2ccc(N(C)C(C)=O)cc2)c1)[C@H]1COC(C)(C)O1 [Example 2, E-(4S)-O-methyl-2,2-dimethyl-4-[(5-fluoro-3-(4-(N-acetyl-N-methylamino)benzyloxy)phenyl)oximinomethyl]-1,3-dioxolane]
- inhibition at 0.2 µM (@ 0.20 μM, human whole blood, read-out: In vitro inhibition of 5-lipoxygenase / stimulated LTB4 formation (% printed under head "IC50 (10^-6 M)")): 82%

Further lines, results first:

- inhibition at 0.1 µM [1]: 49%
Compound: COC[C@@H](OC)[C@@H](OC)c1cc(F)cc(OCc2ccc(N(C)C(=O)N(C)C)cc2)c1 [Example 14, anti-(1S, 2R)-1-[(5-fluoro-3-(4-(N', N'-dimethylaminocarbonyl-N-methylamino)benzyloxy)phenyl)]-1,2,3-trimethoxypropane]

- inhibition at 6.25 µM [1]: 100%
Compound: CO/N=C(/c1cccc(Sc2ccc(N(C)C(=O)N(C)C)cc2)c1)[C@H]1COC(C)(C)O1 [Example 4, Z-(4S)-O-methyl-2,2-dimethyl-4-[(3-(4-(N',N'-dimethylaminocarbonyl-N-methylamino)phenylthioxyl)phenyl)oximinomethyl]-1,3-dioxolane]

- inhibition at 6.25 µM [1]: 99%
Compound: C=CCN(C)c1ccc(Sc2cccc(/C(=N/OC)[C@H]3COC(C)(C)O3)c2)cc1 [Example 3 (Z oxime), Z-(4S)-O-Methyl-2,2-dimethyl-4-[(3-(4-(N-allyl-N-methylamino)phenylthioxyl)phenyl)oximinomethyl]-1,3-dioxolane]

- inhibition at 0.78 µM (@ 0.78 μM, human whole blood, read-out: In vitro inhibition of 5-lipoxygenase / stimulated LTB4 formation (% printed under head "IC50 (10^-6 M)")): 100%
Compound: CO/N=C(\c1cccc(Sc2ccc(N(C)C(=O)N(C)C)cc2)c1)[C@H]1COC(C)(C)O1 [Example 5, E-(4S)-O-methyl-2,2-dimethyl-4-[(3-(4-(N',N': dimethylaminocarbonyl-N-methylamino)phenylthioxyl)phenyl)oximinomethyl]-1,3: dioxolane]
